# In US12227488B2, “Small molecule degraders of Helios and methods of use” (DANA-FARBER CANCER INSTITUTE, INC., priority 2018, dated 2025):
# How the values were obtained:
# [1] = molecular target: GSPT1 (Homo sapiens, UniProt P15170+Q96SW2); assay: Cellular degradation assay, eGFP-GSPT1 fusion with mCherry reporter in Flp-In 293 cells; type: cell-based; design: expressed in transfected cells; host or cells: Flp-In 293; conditions: 5 h incubation, n=1
# Summary of the method: (§1)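 DC50,5 h derived by variable-slope nonlinear fit of the per-well ratio of GFP-positive to mCherry-positive cells, imaged after 5 h compound exposure at 0.5% DMSO.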
# [2] = molecular target: T1, IKZF1 (Homo sapiens, UniProt Q13422); assay: Cellular degradation assay, eGFP-IKZF1Δ fusion with mCherry reporter in Flp-In 293 cells; type: cell-based; conditions: 5 h incubation, n=1
# T1 construct: expressed in transfected cells; host or cells: Flp-In 293
# T1 sequence (Q13422 83-213 isoform Q13422-7 limits assumed): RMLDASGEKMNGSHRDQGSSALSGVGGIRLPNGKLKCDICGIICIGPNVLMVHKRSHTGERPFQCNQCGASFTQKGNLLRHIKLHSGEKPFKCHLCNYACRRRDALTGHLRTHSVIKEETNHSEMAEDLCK
# T1 sequence (Q96SW2 whole entry partner, the tested form may be a part): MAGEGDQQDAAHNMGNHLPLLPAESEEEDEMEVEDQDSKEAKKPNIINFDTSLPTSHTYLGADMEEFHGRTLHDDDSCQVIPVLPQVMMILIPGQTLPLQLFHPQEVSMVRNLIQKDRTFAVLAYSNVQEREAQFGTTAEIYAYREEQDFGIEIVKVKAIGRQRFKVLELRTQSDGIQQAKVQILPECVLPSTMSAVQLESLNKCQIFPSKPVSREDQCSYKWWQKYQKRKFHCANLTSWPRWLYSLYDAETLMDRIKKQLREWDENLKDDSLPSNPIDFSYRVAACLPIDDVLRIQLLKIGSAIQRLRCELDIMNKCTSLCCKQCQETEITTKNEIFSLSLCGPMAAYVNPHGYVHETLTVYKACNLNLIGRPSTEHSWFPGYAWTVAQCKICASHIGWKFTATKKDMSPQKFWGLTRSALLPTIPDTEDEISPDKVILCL
# T1 sequence (Q16531 2-1140 partner limits assumed): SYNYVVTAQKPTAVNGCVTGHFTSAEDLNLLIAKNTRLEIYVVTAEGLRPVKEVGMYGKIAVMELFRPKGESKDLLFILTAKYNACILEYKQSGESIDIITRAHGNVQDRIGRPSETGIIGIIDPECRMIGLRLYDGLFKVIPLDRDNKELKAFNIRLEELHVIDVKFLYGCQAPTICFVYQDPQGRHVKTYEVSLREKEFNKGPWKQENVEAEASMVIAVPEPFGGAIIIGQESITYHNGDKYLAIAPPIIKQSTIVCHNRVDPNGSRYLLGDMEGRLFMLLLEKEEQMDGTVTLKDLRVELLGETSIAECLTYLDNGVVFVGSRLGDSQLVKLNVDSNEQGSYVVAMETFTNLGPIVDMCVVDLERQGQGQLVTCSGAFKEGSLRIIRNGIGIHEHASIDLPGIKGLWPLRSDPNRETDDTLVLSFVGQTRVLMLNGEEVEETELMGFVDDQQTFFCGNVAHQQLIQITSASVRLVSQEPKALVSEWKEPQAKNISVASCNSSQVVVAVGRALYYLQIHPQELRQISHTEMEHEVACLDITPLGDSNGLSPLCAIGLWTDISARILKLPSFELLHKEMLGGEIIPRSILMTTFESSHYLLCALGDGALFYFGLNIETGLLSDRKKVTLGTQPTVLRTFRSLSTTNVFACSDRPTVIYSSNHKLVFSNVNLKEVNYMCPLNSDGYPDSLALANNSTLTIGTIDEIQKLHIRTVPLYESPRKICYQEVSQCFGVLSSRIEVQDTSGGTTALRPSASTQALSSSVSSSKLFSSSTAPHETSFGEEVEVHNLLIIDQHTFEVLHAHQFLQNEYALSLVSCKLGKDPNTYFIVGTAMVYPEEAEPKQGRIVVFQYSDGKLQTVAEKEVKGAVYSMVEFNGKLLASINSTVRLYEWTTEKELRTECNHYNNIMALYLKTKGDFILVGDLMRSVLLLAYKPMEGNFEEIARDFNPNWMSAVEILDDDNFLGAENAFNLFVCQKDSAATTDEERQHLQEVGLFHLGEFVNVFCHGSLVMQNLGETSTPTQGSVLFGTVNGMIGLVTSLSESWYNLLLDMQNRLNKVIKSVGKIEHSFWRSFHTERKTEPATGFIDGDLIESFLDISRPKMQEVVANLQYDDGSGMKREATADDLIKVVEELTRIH
# Summary of the method: as §1
# [3] = system: IKZF2; assay: Cellular degradation assay, eGFP-IKZF2Δ fusion with mCherry reporter in Flp-In 293 cells; type: cell-based; conditions: 5 h incubation, n=1
# Summary of the method: as §1
# [4] = molecular target: T2, CRBN and Helios (IKZF2) (Homo sapiens, UniProt Q96SW2+Q9UKS7); assay: TR-FRET dimerization assay (CRBN-IKZF2 ternary complex formation); type: binding; conditions: n=1
# T2 construct: His (N); Strep (N)
# T2 sequence (Q96SW2 whole entry): as the sequence (Q96SW2 whole entry partner, the tested form may be a part) above
# T2 sequence (Q9UKS7 whole entry): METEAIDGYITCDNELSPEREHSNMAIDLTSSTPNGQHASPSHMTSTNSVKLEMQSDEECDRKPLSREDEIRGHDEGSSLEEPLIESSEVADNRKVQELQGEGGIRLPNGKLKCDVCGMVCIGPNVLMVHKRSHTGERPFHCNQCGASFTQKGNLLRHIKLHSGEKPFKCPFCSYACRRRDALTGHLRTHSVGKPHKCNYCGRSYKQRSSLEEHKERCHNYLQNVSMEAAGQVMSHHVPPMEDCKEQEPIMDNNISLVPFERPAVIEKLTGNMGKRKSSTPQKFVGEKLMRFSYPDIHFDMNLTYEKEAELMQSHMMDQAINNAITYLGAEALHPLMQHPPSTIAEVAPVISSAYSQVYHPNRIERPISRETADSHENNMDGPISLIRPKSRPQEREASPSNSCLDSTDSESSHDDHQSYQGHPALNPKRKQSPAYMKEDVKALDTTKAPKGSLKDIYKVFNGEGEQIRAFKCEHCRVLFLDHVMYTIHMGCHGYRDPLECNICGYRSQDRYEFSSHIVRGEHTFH
# Summary of the method: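 Compound-induced IKZF2 recruitment to CRBN was read as the 520/490 nm TR-FRET ratio after 15 min at rt. The mix held biotinylated IKZF2, BODIPY-labeled CRBN bound to DDB1 lacking the BPB propeller, tracer Tb-streptavidin and compound titrations; n=1, from ≥3 technical replicates per well.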
# [5] = compound concentration 2.00E−05
# [6] = compound concentration 2.00E−06
# [7] = compound concentration 2.00E−07
# [8] = compound concentration 6.6667E−05
# [9] = compound concentration 6.6667E−06
# [10] = compound concentration 6.6667E−07 (667 nM)
# Sequence of GSPT1 (P15170 whole entry, the tested form may be a part): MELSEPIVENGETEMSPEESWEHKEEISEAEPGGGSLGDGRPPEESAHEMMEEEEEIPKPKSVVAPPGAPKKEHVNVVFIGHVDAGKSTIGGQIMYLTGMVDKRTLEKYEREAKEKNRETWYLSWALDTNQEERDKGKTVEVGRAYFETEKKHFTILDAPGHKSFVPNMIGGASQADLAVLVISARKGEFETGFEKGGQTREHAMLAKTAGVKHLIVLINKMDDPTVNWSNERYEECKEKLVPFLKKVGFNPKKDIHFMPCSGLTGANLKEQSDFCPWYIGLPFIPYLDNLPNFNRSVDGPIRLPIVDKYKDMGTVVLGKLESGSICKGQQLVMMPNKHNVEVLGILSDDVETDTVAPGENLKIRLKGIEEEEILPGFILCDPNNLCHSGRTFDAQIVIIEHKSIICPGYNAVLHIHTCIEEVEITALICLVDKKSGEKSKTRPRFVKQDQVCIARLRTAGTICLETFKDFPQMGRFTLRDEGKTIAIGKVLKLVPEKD
# Sequence of GSPT1 (Q96SW2 whole entry, the tested form may be a part): as the sequence (Q96SW2 whole entry partner, the tested form may be a part) above
# Sequence of GSPT1 (Q16531 whole entry partner, the tested form may be a part): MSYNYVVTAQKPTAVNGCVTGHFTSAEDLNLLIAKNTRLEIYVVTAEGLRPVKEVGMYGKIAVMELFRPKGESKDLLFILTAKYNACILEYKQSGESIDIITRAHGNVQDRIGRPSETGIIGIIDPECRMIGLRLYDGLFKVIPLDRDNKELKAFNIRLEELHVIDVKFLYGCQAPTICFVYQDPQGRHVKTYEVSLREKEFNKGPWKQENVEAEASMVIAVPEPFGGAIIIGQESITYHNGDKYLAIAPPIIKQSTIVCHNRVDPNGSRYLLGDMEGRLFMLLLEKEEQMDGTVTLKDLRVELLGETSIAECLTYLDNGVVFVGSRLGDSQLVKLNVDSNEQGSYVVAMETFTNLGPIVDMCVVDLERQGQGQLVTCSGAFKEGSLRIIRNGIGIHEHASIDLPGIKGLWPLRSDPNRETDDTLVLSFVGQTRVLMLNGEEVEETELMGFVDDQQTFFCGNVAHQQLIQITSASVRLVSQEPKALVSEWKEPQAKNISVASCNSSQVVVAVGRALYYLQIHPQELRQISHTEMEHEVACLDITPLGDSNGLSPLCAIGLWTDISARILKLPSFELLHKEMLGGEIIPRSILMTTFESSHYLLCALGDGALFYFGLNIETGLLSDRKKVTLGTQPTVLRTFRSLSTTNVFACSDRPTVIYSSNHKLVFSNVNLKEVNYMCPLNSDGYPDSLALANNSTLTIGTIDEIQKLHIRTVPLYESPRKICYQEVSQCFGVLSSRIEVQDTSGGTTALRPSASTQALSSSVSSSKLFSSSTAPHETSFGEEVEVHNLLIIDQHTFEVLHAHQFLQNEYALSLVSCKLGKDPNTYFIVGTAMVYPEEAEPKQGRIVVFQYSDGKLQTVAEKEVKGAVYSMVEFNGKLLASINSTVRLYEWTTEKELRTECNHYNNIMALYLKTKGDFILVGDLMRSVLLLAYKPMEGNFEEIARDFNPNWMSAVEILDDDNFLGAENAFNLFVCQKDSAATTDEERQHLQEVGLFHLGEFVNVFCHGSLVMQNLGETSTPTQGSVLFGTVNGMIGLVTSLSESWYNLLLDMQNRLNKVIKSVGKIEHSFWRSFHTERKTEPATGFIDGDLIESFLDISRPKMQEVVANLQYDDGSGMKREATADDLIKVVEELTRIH
smiles,measurement,setting,value
"Cc1ccc(NC(=O)Nc2cccc(NC3=CC(=O)N(C4CCC(=O)NC4=O)C3=O)c2)cc1C (stereo not drawn) [Compound 55, 1-(3,4-dimethylphenyl)-3-(3-((1-(2,6-dioxopiperidin-3-yl)-2,5-dioxo-2,5-dihydro-1H-pyrrol-3-yl)amino)phenyl)urea]",GSPT1 GFP/RFP Relative Abundance,[1]; [5],0.096
same,GSPT1 GFP/RFP Relative Abundance,[1]; [6],0.153
same,GSPT1 GFP/RFP Relative Abundance,[1]; [7],0.180
same,IKZF1 GFP/RFP Relative Abundance,[2]; [5],0.471
same,IKZF1 GFP/RFP Relative Abundance,[2]; [6],0.212
same,IKZF1 GFP/RFP Relative Abundance,[2]; [7],0.251
same,IKZF2 GFP/RFP Relative Abundance,[3]; [5],1.029
same,IKZF2 GFP/RFP Relative Abundance,[3]; [6],0.936
same,IKZF2 GFP/RFP Relative Abundance,[3]; [7],0.938
same,TR-FRET-IKZF2 (Normalized to CC-885),[4]; [8],0.523
same,TR-FRET-IKZF2 (Normalized to CC-885),[4]; [9],0.430
same,TR-FRET-IKZF2 (Normalized to CC-885),[4]; [10],0.321
"O=C(Cc1ccc(Cl)c(Cl)c1)NCc1cccc(NC2=CC(=O)N(C3CCC(=O)NC3=O)C2=O)c1 (stereo not drawn) [Compound 61, 2-(3,4-dichlorophenyl)-N-(3-((1-(2,6-dioxopiperidin-3-yl)-2,5-dioxo-2,5-dihydro-1H-pyrrol-3-yl)amino)benzyl)acetamide]",GSPT1 GFP/RFP Relative Abundance,[1]; [5],0.190
same,GSPT1 GFP/RFP Relative Abundance,[1]; [6],0.466
same,GSPT1 GFP/RFP Relative Abundance,[1]; [7],0.737
same,IKZF1 GFP/RFP Relative Abundance,[2]; [5],0.111
same,IKZF1 GFP/RFP Relative Abundance,[2]; [6],0.104
same,IKZF1 GFP/RFP Relative Abundance,[2]; [7],0.103
same,IKZF2 GFP/RFP Relative Abundance,[3]; [5],0.044
same,IKZF2 GFP/RFP Relative Abundance,[3]; [6],0.045
same,IKZF2 GFP/RFP Relative Abundance,[3]; [7],0.050
same,TR-FRET-IKZF2 (Normalized to CC-885),[4]; [8],1.465
same,TR-FRET-IKZF2 (Normalized to CC-885),[4]; [9],1.248
same,TR-FRET-IKZF2 (Normalized to CC-885),[4]; [10],1.201
"O=C1CCC(N2C(=O)C=C(Nc3cccc(NC(=O)Nc4ccc(Cl)c(Cl)c4)c3)C2=O)C(=O)N1 (stereo not drawn) [Compound 56, 1-(3,4-dichlorophenyl)-3-(3-((1-(2,6-dioxopiperidin-3-yl)-2,5-dioxo-2,5-dihydro-1H-pyrrol-3-yl)amino)phenyl)urea]",GSPT1 GFP/RFP Relative Abundance,[1]; [5],1.572
same,GSPT1 GFP/RFP Relative Abundance,[1]; [6],0.074
same,GSPT1 GFP/RFP Relative Abundance,[1]; [7],0.112
same,IKZF1 GFP/RFP Relative Abundance,[2]; [5],1.190
same,IKZF1 GFP/RFP Relative Abundance,[2]; [6],0.319
same,IKZF1 GFP/RFP Relative Abundance,[2]; [7],0.403
same,IKZF2 GFP/RFP Relative Abundance,[3]; [5],1.092
same,IKZF2 GFP/RFP Relative Abundance,[3]; [6],1.025
same,IKZF2 GFP/RFP Relative Abundance,[3]; [7],0.983
same,TR-FRET-IKZF2 (Normalized to CC-885),[4]; [8],0.383
same,TR-FRET-IKZF2 (Normalized to CC-885),[4]; [9],0.282
same,TR-FRET-IKZF2 (Normalized to CC-885),[4]; [10],0.187
"Cc1ccc(NC(=O)N(C)Cc2cccc(NC3=CC(=O)N(C4CCC(=O)NC4=O)C3=O)c2)cc1Cl (stereo not drawn) [Compound 52, 3-(3-chloro-4-methylphenyl)-1-(3-((1-(2,6-dioxopiperidin-3-yl)-2,5-dioxo-2,5-dihydro-1H-pyrrol-3-yl)amino)benzyl)-1-methylurea]",GSPT1 GFP/RFP Relative Abundance,[1]; [5],0.308
same,GSPT1 GFP/RFP Relative Abundance,[1]; [6],0.815
same,GSPT1 GFP/RFP Relative Abundance,[1]; [7],0.787
same,IKZF1 GFP/RFP Relative Abundance,[2]; [5],0.103
same,IKZF1 GFP/RFP Relative Abundance,[2]; [6],0.092
same,IKZF1 GFP/RFP Relative Abundance,[2]; [7],0.080
same,IKZF2 GFP/RFP Relative Abundance,[3]; [5],0.058
same,IKZF2 GFP/RFP Relative Abundance,[3]; [6],0.059
same,IKZF2 GFP/RFP Relative Abundance,[3]; [7],0.062
same,TR-FRET-IKZF2 (Normalized to CC-885),[4]; [8],1.559
same,TR-FRET-IKZF2 (Normalized to CC-885),[4]; [9],1.367
same,TR-FRET-IKZF2 (Normalized to CC-885),[4]; [10],1.205
"Cc1ccc(CC(=O)NCc2cccc(NC3=CC(=O)N(C4CCC(=O)NC4=O)C3=O)c2)cc1C (stereo not drawn) [Compound 60, 2-(3,4-dimethylphenyl)-N-(3-((1-(2,6-dioxopiperidin-3-yl)-2,5-dioxo-2,5-dihydro-1H-pyrrol-3-yl)amino)benzyl)acetamide]",GSPT1 GFP/RFP Relative Abundance,[1]; [5],0.387
same,GSPT1 GFP/RFP Relative Abundance,[1]; [6],0.558
same,GSPT1 GFP/RFP Relative Abundance,[1]; [7],0.528
same,IKZF1 GFP/RFP Relative Abundance,[2]; [5],0.132
same,IKZF1 GFP/RFP Relative Abundance,[2]; [6],0.078
same,IKZF1 GFP/RFP Relative Abundance,[2]; [7],0.091
same,IKZF2 GFP/RFP Relative Abundance,[3]; [5],0.087
same,IKZF2 GFP/RFP Relative Abundance,[3]; [6],0.151
same,IKZF2 GFP/RFP Relative Abundance,[3]; [7],0.185
same,TR-FRET-IKZF2 (Normalized to CC-885),[4]; [8],1.082
same,TR-FRET-IKZF2 (Normalized to CC-885),[4]; [9],0.945
same,TR-FRET-IKZF2 (Normalized to CC-885),[4]; [10],0.833
